Laboratory results published in publication PMC4356641 (European journal of oral sciences, 2015).
Where “and” joins values, the source holds several entries; their conditions need not be identical. Equal entries are not always repeated.

What was measured:
soluble MMP-9 = details: cited from earlier work
[1] = tested on: demineralized dentin collagen; details: cited from earlier work
[2] = tested on: total endogenous MMP activity of dentin (matrix-bound MMPs); format: biochemical, human; details: 1.0% w/v aqueous BAC applied for 60 s; relative to untreated control with 0% inhibition; mean (SD), n = 10
MMP = details: cited from earlier work
MMP-9 = details: cited from earlier work
MMP-2 = details: cited from earlier work
MMP-8 = details: cited from earlier work

## C=C(C)C(=O)OCCCCCCCCCCCC[n+]1ccccc1.[Br-] [MDPB, 12-methacryloyloxydodecylpyridinium bromide]
Soluble MMP-9
  Inhibition of soluble MMP-9: effectively inhibited soluble MMP-9 as or more effectively as Galardin
[1]
  Inhibition of degradation of demineralized dentin collagen: almost completely inhibited

## Benzalkonium chloride [BAC]
[2]
  % MMP inhibition (total MMP activity): 54% and 54.2 (9.0) ^C %
MMP; 1.0% BAC
  MMP inhibition: 55–66%
MMP; 2.0% BAC
  MMP inhibition relative to 1.0% BAC: did not yield additional MMP inhibition

## [H]/N=C(\N/C(=N/[H])NCCCCCCNC(=N)NC(=N)Nc1ccc(Cl)cc1)Nc1ccc(Cl)cc1 [CHX, Chlorhexidine]
MMP-9
  Inhibition of MMP-9: potent inhibitor
MMP-2
  Inhibition of MMP-2: potent inhibitor
MMP-8
  Inhibition of MMP-8: potent inhibitor
